According to patent US10293004B2, “Butyrate-producing bacterium and use thereof” (KABUSHIKI KAISHA YAKULT HONSHA, priority 2014, dated 2019):

Columns and labels:
[1] = Turbidity (OD660) after anaerobic culture of bacterial strains in PYGA, PYSA or PYXA medium
Procedure: A frozen stock solution of each bacterial strain (a 10% (w/v) skim milk-2% sodium glutamate solution in which bacterial cells were suspended) (cell count: 2.0 to 5.5×10^10 cells/mL) was thawed, and the solution was inoculated at 1% to 4 mL of a PY liquid medium supplemented with 33 mM sodium acetate and 0.5 (w/v) % glucose (PYGA medium), followed by anaerobic culture at 37° C. for 24 hours. After the culture, the culture solution was inoculated at 1% to a fresh PYGA medium, followed by anaerobic culture at 37° C. for 24 hours. After the culture, the turbidity (OD660) of the culture solution was measured. Then, the culture solution was inoculated at 1% to a PY medium containing 0.5 (w/v) % L-sorbose or D-xylitol and 33 mM sodium acetate (the medium containing L-sorbose: PYSA, and the medium containing D-xylitol: PYXA), followed by anaerobic culture at 37° C. for 24 hours. Then, the turbidity (OD660) was measured.

[2] = Amount of butyrate produced by culture in PYA medium supplemented with acetate and lactate; details: PYA medium (33 mM sodium acetate) with 40 mM sodium lactate, 37° C. 24 hours, minus PYA without lactate
Procedure: Each bacterial solution cultured in a PYGA liquid medium under the same conditions as those described in the preceding paragraph 1) was inoculated at 1% to a PYA medium containing 33 mM sodium acetate and further supplemented with 40 mM sodium lactate, followed by anaerobic culture at 37° C. for 24 hours. After the completion of the culture, the organic acid concentration in the culture solution was analyzed by ion-exclusion HPLC. The analysis conditions were the same as those described in the preceding paragraph 1). The amount of butyrate produced was calculated according to (Expression 2). Amount of butyrate produced=(Amount of butyrate produced by culture for 24 hours in a PYA medium supplemented with 40 mM sodium lactate)−(Amount of butyrate produced by culture for 24 hours in a PYA medium without 40 mM sodium lactate) (Expression 2)

[3] = Biochemical properties: saccharide fermentability (API-ZYM, Rapid ID32A API, API KENKI 20A); parameters: key: +: positive reaction; −: negative reaction; +^w: weak reaction
From the text: Commercially available API-ZYM, Rapid ID32A API, and API KENKI 20A (SYSMEX bioMerieux Co., Ltd.) were used in the testing of biochemical properties of various bacterial strains. The testing method followed the product manuals.

mouse C57BL/6J = experiment: Multiple oral dose test of YIT 12355 to mouse given indigestible saccharide; type: in vivo; details: for Total cell count: DAPI counting method; for Cell count, A. hadrus: quantitative PCR; for Occupancy: cell count of YIT 12355/total cell count ×100; for Detected count: mice with A. hadrus detected / mice in group
Procedure: Mice were acclimatized and raised with F2 feed (manufactured by Funabashi Farm Co., Ltd.) for 1 week and then divided into 6 groups such that the average body weight was almost equal among these groups. Then, a control diet (Table 7) was administered thereto for 1 week and replaced with purified feed containing an indigestible material, which was then administered thereto for 2 weeks. A live cell suspension of YIT 12355 was orally administered twice a week a total of 4 times using a probe. At the final day of the test, each mouse was dissected, and the cecal and colonic contents were recovered and examined for an organic acid concentration. Also, the cell count of YIT 12355 in the intestinal tract contents was measured by quantitative PCR, while change in the whole intestinal flora was examined by use of PCR-DGGE (denaturing gradient gel electrophoresis). • Animal used: mouse C57BL/6J (4 weeks old; CLEA Japan, Inc.) • Test period: 3 weeks • Indigestible saccharide used: lactitol and maltitol • Dose of indigestible saccharide: 5% (w/w) • Administered bacterial strain: YIT 12355 • Dose of bacterium: live cell dose: 3.9 to 6.9×10^8 cfu/mouse (administration of a suspension in physiological saline using a probe). Total cell count including dead cells: […] cfu/mouse • Group configuration: 6 groups (5 mice/group) At the 2nd week of administration of the test feed, each mouse was anesthetized with diethyl ether and euthanized by cervical dislocation. After abdominal section, cecal tissues and colonic tissues were excised to recover their contents. The cecal and colonic contents were diluted 10-fold with PBS and subjected to DNA extraction. DNA was extracted by the bead-phenol method from the 10-fold diluted solution of the intestinal tract contents. Specifically, 0.3 g of glass beads (diameter: 0.1 mm), 300 μL of a Tris-SDS solution (a mixed solution of 250 mL of 200 mM Tris-HCl, 80 mM EDTA, pH 9.0, and 50 mL of 10% SDS) and 500 μL of TE saturated phenol were added to 200 μL of the diluted solution of the intestinal tract contents, and the mixture was vigorously shaken for 30 seconds using FASTPREP FP120 cell disruptive equipment (power level: 5.0). After centrifugation at 15,000 rpm for 5 minutes, 400 μL of a phenol/chloroform/isoamyl alcohol (25:24:1) solution was added to 400 μL of the supernatant, and the mixture was shaken for 45 seconds using FASTPREP FP120 cell disruptive equipment (power level: 4.0). After centrifugation at 15,000 rpm for 5 minutes, 25 μL of 3 M sodium acetate (pH 5.4) and 250 μL of isopropanol were added to 250 μL of the supernatant and mixed therewith. After centrifugation at 15,000 rpm for 5 minutes, the supernatant was removed, and 500 μL of 70% ethanol was added thereto, followed by centrifugation again at 15,000 rpm for 5 minutes. The supernatant was removed, and the pellets were dried and dissolved in 1.0 mL of a TE buffer. The obtained DNA solution was diluted 10-fold with purified water to prepare a template DNA solution. For quantitative PCR, 7500 Real-Time PCR System (manufactured by Life Technologies Corp.) was used. The total volume of the reaction solution was set to 20 μL, and SYBR Premix Ex Taq II (Takara Bio Inc.) containing 1.0 μM each of primers, and the template DNA solution were mixed and then subjected to quantitative PCR. The reaction conditions involved heating at 95° C. for 2 minutes, followed by 40 repetitive cycles each involving reactions at 95° C. for 20 seconds, 55° C. for 20 seconds and 72° C. for 50 seconds, and subsequent reaction at 72° C. for 3 minutes. For subsequent Tm value analysis, after reaction at 60° C. for 1 minute, the temperature was elevated at a temperature gradient of 0.2° C./sec to 95° C. during which the fluorescence of SYBR Green I was measured to measure the dissociation temperature (Tm) of the double strand of the amplification product. […]

A. hadrus (Eubacterium hadrum) YIT 12355 (NITE BP-01832)
Turbidity (OD660) ([1]; after anaerobic culture at 37° C. for 24 hours in PYGA liquid medium): 3.55 | Turbidity (OD660) ([1]; anaerobic culture at 37° C. for 24 hours of 1% inoculum in PYSA (L-sorbose)): 2.39 | Turbidity (OD660) ([1]; anaerobic culture at 37° C. for 24 hours of 1% inoculum in PYXA (D-xylitol)): 1.47 | Amount of butyrate produced [2]: 19.9 mmol/L | Aesculin [3]: + | D-Cellobiose [3]: +^w | D-Mannitol [3]: + | D-Raffinose [3]: − | D-Xylose [3]: + | Glycerol [3]: +^w | L-Arabinose [3]: + | L-Rhamnose [3]: + | L-Sorbitol [3]: + | Mallose [3]: + | Salicin [3]: + | Total cell count (mouse C57BL/6J; Cecal contents): 10.9 ± 0.1 log10 cells/g contents | Cell count, A. hadrus (mouse C57BL/6J; Cecal contents, multiple oral dose): 7.0 ± 1.1 log10 cells/g contents | Occupancy (mouse C57BL/6J; Cecal contents): 0.1 ± 0.1% | Detected count (mouse C57BL/6J; Cecal contents): (4/5) | Total cell count (mouse C57BL/6J; Colonic contents): 11.0 ± 0.0 log10 cells/g contents | Cell count, A. hadrus (mouse C57BL/6J; Colonic contents, ND: <lower quantification limit 6.0 log10 (cells/g contents)): 7.2 ± 1.1 log10 cells/g contents | Occupancy (mouse C57BL/6J; Colonic contents): 0.1 ± 0.1% | Detected count (mouse C57BL/6J; Colonic contents): (4/5) | cell count of A. hadrus in the intestine (mouse C57BL/6J; summary in words of Table 10): largely changes neither | occupancy of A. hadrus in the intestine (mouse C57BL/6J; summary in words of Table 10): largely changes neither
